Holding throughout (assay type): physicochemical
Data set [1] in a line: Storage in humidity chamber at 96% r.h., solid form checked by XRPD. Particulars: for solid form by XRPD after storing in humidity chamber: 96% r.h. As for the experimental part: Desolvation of the solvates tends to produce the amorphous form.
(§1) (approx. ±0.1%). After storing for 3 days at 96% r.h. at room temperature (Test 49), FIG. 29a, and at 40° C. […] The water uptake measured by the Karl Fischer method was very low (<0.2%). […] The broad background in the XRPD diagram, FIG. 26, is due to water remaining in the sample after careful drying at room temperature following filtration of the suspension. The Karl Fischer result indicates 45% water content.

The nature of data set [2]: Karl Fischer moisture analysis after humidity storage. Particulars: after storing 3 days at 96% r.h. As for the experimental part:
Karl Fischer moisture analyses were carried out according to standard procedures. […] (approx. ±0.1%). After storing for 3 days at 96% r.h. at room temperature (Test 49), FIG. 29a, and at 40° C. […] The water uptake measured by the Karl Fischer method was very low (<0.2%). […] The broad background in the XRPD diagram, FIG. 26, is due to water remaining in the sample after careful drying at room temperature following filtration of the suspension. The Karl Fischer result indicates 45% water content.

Data set [3] is described as follows: Dynamic vapor sorption (DVS). The method, then: The sample (9.869 mg) was placed on a Pt pan, and the sample was allowed to equilibrate at 25° C. at 50% relative humidity (r.h.) before starting a pre-defined humidity program. The predefined humidity programs include 1.0 hours 50%, from 50% r.h. to 0% r.h.; 5% r.h. per hour, 5 hours at 0% r.h., from 0% r.h. to 93% r.h.; 5% r.h. per hour, 5 hours at 93% r.h., from 93% r.h. to 50% r.h.; and 5% r.h. per hour, 1 hours at 50% r.h.
as §1

Data set [4] in a line: Phase equilibration experiments in EtOAc/heptane 1:7 v/v. The following applies: 3 days.
Data set [5] is described as follows: Phase equilibration experiment in water, solid form checked by XRPD. Particulars: stirring 3 days, 23° C. (room temperature). As for the experimental part:
as §1

The nature of data set [6]: Measurement of the approximate solubility at ambient temperature. The following applies: organic solvent or mixture, 23° C. As for the experimental part:
In some embodiments, to determine the approximate solubility at room temperature, solvent was added in steps to the solid material. After every addition, the sample was well stirred. The addition of solvent was continued until complete dissolution or until 20 ml of solvent was added.
In other embodiments, aliquots of the test solvent were added to an accurately weighed amount of the compound of Formula I in small increments (usually 100-1000 μL), with sonication until complete dissolution was obtained, if possible. Dissolution was determined visually. The actual solubilities may be higher than reported due to slow dissolution rates or the use of excess solvent. The approximate solubility was determined in mg/mL to the nearest whole number.
The approximate solubility at ambient temperature must be known in order to carry out systematic crystallization experiments.

Values after ≈ are worked out from the molar mass of the structure shown.

As a reminder, the solubility is the dissolved amount per volume that the medium holds.

As for `Cc1cc(OC[P@@]2(=O)OCC[C@@H](c3cccc(Cl)c3)O2)cc(C)c1Cc1ccc(O)c(C(C)C)c1` [Crystal form C], the “solid form by XRPD after storing in humidity chamber” value in data set [1] (23° C. (room temperature), 3 days) is recorded as “no transformation of the crystal form”; in data set [1] (40° C., 3 days) it was “no transformation of the crystal form”. For the same compound, the hydrate formation entry in data set [1] (conclusion from DVS, humidity storage and water equilibration) is recorded as “does not show any evidence of hydrate formation”. For the same compound, the “water uptake measured by the Karl Fischer method” value in data set [2] is less than 0.2%. For the same compound, the “water uptake (DVS)” value in data set [3] (FIG. 29a) is “less than 0.2 % by weight”. In data set [3] (FIGS. 24 and 25), the “solid form by XRPD following DVS analysis” value was “did not transition to a different polymorph”. Moreover, the hygroscopicity entry in data set [3] (conclusion from DVS and humidity tests) is “non-hygroscopic”. Besides, the “solid form after phase equilibration in EtOAc/heptane 1:7 v/v” value in data set [4] (78° C.) and in data set [4] (room temperature) was “no transformation” in each case. Moreover, the “solid form by XRPD after phase equilibration in water” value in data set [5] is given as “no transformation of the crystal form”; in data set [5] (listed as crystalline Form C), “no transformation”.

On to `Cc1cc(OC[P@@]2(=O)OCC[C@@H](c3cccc(Cl)c3)O2)cc(C)c1Cc1ccc(O)c(C(C)C)c1` [Starting Material A], for which the solubility in data set [6] (methyl ethyl ketone, thermodynamic from solid, methy ethyl ketone) was greater than 480 mg/mL; in data set [6] (thermodynamic from solid, 1-octanol) it was greater than 200 mg/mL; in data set [6] (thermodynamic from solid, 2,2,2-trifluoroethanol), roughly 195 mg/mL (≈ 379 mM); in data set [6] (thermodynamic from solid, EtOAc), roughly 772 mg/mL (≈ 1500 mM); in data set [6] (thermodynamic from solid, EtOAc/n-heptane 75:25 v/v) it was greater than 200 mg/mL; in data set [6] (thermodynamic from solid, N-methyl-2-pyrrolidone (NMP)), greater than 200 mg/mL. For the same compound, the solubility is greater than 384 mg/mL in data set [6] (thermodynamic from solid, THF); 190 mg/mL (≈ 369 mM) in data set [6] (thermodynamic from solid, THF/water 75:25 v/v); greater than 200 mg/mL in data set [6] (thermodynamic from solid, acetic acid); greater than 200 mg/mL in data set [6] (thermodynamic from solid, acetone/n-heptane 75:25 v/v); greater than 200 mg/mL in data set [6] (thermodynamic from solid, acetone/water 75:25 v/v); greater than 480 mg/mL in data set [6] (thermodynamic from solid, acetonitrile). The solubility in data set [6] (thermodynamic from solid, acetonitrile/water 75:25 v/v) was greater than 200 mg/mL; in data set [6] (thermodynamic from solid, chloroform), greater than 388 mg/mL; in data set [6] (thermodynamic from solid, dichloromethane) it was greater than 480 mg/mL; in data set [6] (thermodynamic from solid, ethanol), greater than 200 mg/mL; in data set [6] (thermodynamic from solid, ethanol/n-heptane 75:25 v/v), greater than 200 mg/mL; in data set [6] (thermodynamic from solid, ethanol/water 75:25 v/v), greater than 200 mg/mL. The solubility is less than 39 mg/mL in data set [6] (thermodynamic from solid, methyl nonafluorobutyl ether); less than 40 mg/mL in data set [6] (thermodynamic from solid, methylcyclohexane); less than 38 mg/mL in data set [6] (thermodynamic from solid, n-heptane); greater than 200 mg/mL in data set [6] (thermodynamic from solid, nitrobenzene); greater than 200 mg/mL in data set [6] (thermodynamic from solid, pyridine); greater than 200 mg/mL in data set [6] (thermodynamic from solid, tert-butyl methyl ether (TBME)). The solubility in data set [6] (thermodynamic from solid, tetrahydrofuran (THF)/n-heptane 75:25 v/v) was greater than 200 mg/mL; in data set [6] (thermodynamic from solid, toluene), greater than 200 mg/mL.

On to `Cc1cc(OC[P@@]2(=O)OCC[C@@H](c3cccc(Cl)c3)O2)cc(C)c1Cc1ccc(O)c(C(C)C)c1` [THF solvate], for which the “solid form by XRPD after storing in humidity chamber” value in data set [1] (23° C. (room temperature), 8 weeks) is “a mixture of the solvate and the amorphous form”.

(Values after patent US12227533B2, “Crystalline forms and methods of producing crystalline forms of a compound” (Viking Therapeutics, Inc., priority 2018, dated 2025).)
